According to US12516289B2, “Methods of producing T memory stem cell populations” (The United States of America, as represented by the …, priority 2012, dated 2026):

System: CD45RO−CD62L+ naïve CD8+ T cells
Experiment: Activation of naïve CD8+ T cells in the presence of the GSK-3β inhibitor, phenotypic analysis
Format: cell-based, human
Method: Candidate human TSCM cells were generated by activating CD45RO^−CD62L^+ naïve CD8^+ T cells in the presence of the GSK-3β inhibitor TWS119. […] To determine whether the CD45RO^−CD62L^+ T cells generated in the presence of TWS119 were truly naïve cells or had acquired memory traits, phenotypic analysis was performed using established markers of T cell activation and differentiation (Appay et al., Cytometry A 73: 975-983 (2008)).

SMILES: Nc1cccc(-c2cc3c(Oc4cccc(O)c4)ncnc3[nH]2)c1 [TWS119, 3-[[6-(3-aminophenyl)-7H-pyrrolo[2,3-d]pyrimidin-4-yl]oxy]phenol]
- phenotype of T cells after culture (CD45RO/CD62L) (naïve CD8+ T cells activated in presence of TWS119, after 2 weeks): majority of T cells cultured with TWS119 retained a CD45RO^−CD62L^+ naïve-like phenotype
- expression of CD95 and IL-2Rβ by TWS119-generated naïve-like T cells (phenotypic analysis, compared with TN and memory T cells): expressed levels of CD95 and IL-2Rβ similar to those observed in memory T cells
